Experimental data as given in PMC4183595, “Study on the Main Components Interaction from Flos Lonicerae and Fructus Forsythiae and Their Dissolution In Vitro and Intestinal Absorption in Rats” (PLoS ONE, 2014).
Like-named read-outs stand apart in the source and are kept apart here.

What was measured:
[1] = Rat in vivo pharmacokinetics study after oral administration of product A, B or C; design: species or system Male Sprague-Dawley (SD) rats; AUC 0→t in product C group, increased to % compared to that in product A or B groups: concentration or dose not given beside the values; conditions: for AUC(0-t) / AUC(0-inf) / MRT / Tmax / half-life / Cmax: male, Sprague-Dawley, rat, plasma; for AUC(0-t) / AUC(0-inf) / MRT / Tmax / half-life: 10 mL·kg^−1; for AUC(0-t): oral product C group; for AUC(0-inf) / MRT / Tmax / half-life / Cmax: po, 10 mL·kg^−1, rats; for half-life: read-out: T 1/2z; for Cmax: mean±SD; for AUC 0→t in product C group, increased to % compared to that in product A or B groups: product C versus product A or B
Procedure: Product A (extract mixed with FLJ extract and water, (1∶1, v / v )), product B (extract mixed with FF extract and water, (1∶1, v / v )) and product C (extract mixed with FLJ and FF extracts, (1∶1, v / v )) were given to oral administration to rats, respectively.
Male SD rats (∼250 g) were kept in an environmentally controlled breeding room (temperature: 20±2°C, relative humidity: 60±5%) for 1 week. […] The rats were randomly divided into three groups with no less than six rats in each group to receive various administrations at a single oral dose (10 mL·kg^−1) by gastric gavage. […] Subsequently, plasma was prepared by centrifugation at 1,816×g, 4°C for 7 min, and immediately analyzed or stored at −70°C for further analysis.
The main pharmacokinetic parameters including the peak plasma concentration (C max), the time to C max (T max), the AUC from 0 to infinity (AUC 0–∞), the AUC form 0 to time (AUC 0–t), mean residence time (MRT), and terminal elimination half-life (T 1/2z) were calculated by the non-compartmental analysis of plasma concentration vs. time data using the “DAS 2.1.1” software (Mathematical Pharmacology Professional Committee of China, Shanghai, China).

Caco-2 cells = experiment: In vitro Caco-2 monolayer model, apical to basolateral transport (P app); type: in vitro ADME, human; conditions: Caco-2 monolayer; for P app in product C group, % compared to that in product A group / P app in product C group, % compared with that in product B group: HBSS pH 6.0, apical to basolateral
Procedure: Caco-2 cells were cultured in high glucose DMEM with 10% fetal bovine serum, 1% nonessential amino acids. Cells were cultured in a humidified atmosphere of 5% CO2 at 37°C. After reaching 80% confluens, Caco-2 cells were harvested with 0.05% trypsin-EDTA solution and seeded on top of CC inserts in 6-well plates, which has a surface area of 4.2 cm^2, at a density of 1.0×10^5 cells/cm^2. The protocols for cell culture in Transwell inserts were similar to those described previously.
Hank’s balanced salt solution (HBSS) was used as the transport buffer for the transport study in Caco-2 cells monolayer model. It was prepared by dissolving 9.5 grams of commercial available HBSS powder in 1000 mL water.
Cell culture experiments were described previously. Briefly, after culture medium was aspirated, the cell monolayers were washed three times with blank HBSS. […] The monolayers were incubated with the blank HBSS for 1 h with 37°C. Thereafter the incubation medium was aspirated. Afterwards, a solution containing the compound was loaded onto the apical side. The amounts of transported compound were measured as a function of time. […] The samples were taken at 0, 1, 2, 3 and 4 h after incubation. At the end of the transport experiment, integrity of the monolayer was monitored by TEER value.

P-gp, MRP2 and BCRP = test system: P-gp, MRP2 and BCRP; design: method as in PMID 24035225, PMID 25442264; conditions: previous study; ref [21]–[22]; cited from earlier work
[2] = single oral dose 10 mL·kg^−1 of product A (FLJ extract and water 1:1)
[3] = single oral dose 10 mL·kg^−1 of product C (FLJ and FF extracts 1:1)
[4] = single oral dose 10 mL·kg^−1 of product B (FF extract and water 1:1)

Structure (SMILES)	AUC(0-t) ([1]; rats) [ng·h/mL]	AUC(0-inf) ([1]; oral product A) [ng·h/mL]	MRT ([1]; oral product A) [h]	Tmax ([1]; oral product A) [h]	half-life ([1]; oral product A) [h]	AUC(0-inf) ([1]; oral product C) [ng·h/mL]	MRT ([1]; oral product C) [h]	Tmax ([1]; oral product C) [h]	half-life ([1]; oral product C) [h]	Cmax [1, 2] [ng/mL]	Cmax [1, 3] [ng/mL]	AUC 0→t in product C group, increased to % compared to that in product A or B groups ([1]; rats, oral) [%]	P app in product C group, % compared to that in product A group (Caco-2 cells) [%]	AUC(0-inf) ([1]; oral product B) [ng·h/mL]	MRT ([1]; oral product B) [h]	Tmax ([1]; oral product B) [h]	half-life ([1]; oral product B) [h]	Cmax [1, 4] [ng/mL]	efflux transporters influencing the intestinal absorption (P-gp, MRP2 and BCRP)	further results
C[C@@H]1O[C@@H](OC[C@H]2O[C@@H](OCCc3ccc(O)c(O)c3)[C@H](O)[C@@H](O)[C@@H]2OC(=O)/C=C/c2ccc(O)c(O)c2)[C@H](O)[C@H](O)[C@H]1O [Forsythoside A]	420					773	7.53	0.167	5.98 ± 0.357		182 ± 38.6	230		229	3.75	0.167	4.6 ± 1.04	102 ± 6.19	affected by P-gp and MRP2, not BCRP	P app in product C group, % compared with that in product B group (Caco-2 cells): 165%
COc1cc(C[C@H]2C(=O)OC[C@@H]2Cc2ccc(OC)c(OC)c2)ccc1O [Arctigenin]						3.99	9.4	0.333	8.9 ± 0.898		0.231 ± 0.144			4.44	9.33	0.333	10.4 ± 0.36	0.895 ± 0.166		AUC 0→t in product C group compared with product A or B group ([1]; rats, oral, same dosages administrated): lower significantly; P app in product C group, % compared with that in product B group (Caco-2 cells): 110%
COc1cc(C2OCC3C(c4ccc(O[C@@H]5O[C@H](CO)[C@@H](O)[C@H](O)[C@H]5O)c(OC)c4)OCC23)ccc1O (stereo partly drawn) [Pinoresinol-β-D-glucoside]	17.1					67.8	7.57	0.167	5.25 ± 0.472		32.3 ± 7.57	299		32	4.1	0.167	3.37 ± 0.21	11.9 ± 4.36		P app, product C group versus product B group (Caco-2 cells): no significant difference
COC(=O)C1=CO[C@@H](O[C@@H]2O[C@H](CO)[C@@H](O)[C@H](O)[C@H]2O)[C@@H]2[C@@H](C)[C@@H](O)C[C@H]12 [Loganin]	108	92.9	5.82	0.35	2.07 ± 0.205	140	7.83	0.267	7.33 ± 0.273	28 ± 4.93	54.7 ± 8.63	121	211							

Now from value to compound, other results behind:

AUC(0-t) ([1]; rats) [ng·h/mL]	AUC(0-inf) ([1]; oral product A) [ng·h/mL]	MRT ([1]; oral product A) [h]	Tmax ([1]; oral product A) [h]	half-life ([1]; oral product A) [h]	AUC(0-inf) ([1]; oral product C) [ng·h/mL]	MRT ([1]; oral product C) [h]	Tmax ([1]; oral product C) [h]	half-life ([1]; oral product C) [h]	Cmax [1, 2] [ng/mL]	Cmax [1, 3] [ng/mL]	AUC 0→t in product C group, increased to % compared to that in product A or B groups ([1]; rats, oral) [%]	P app in product C group, % compared to that in product A group (Caco-2 cells) [%]	AUC(0-inf) ([1]; oral product B) [ng·h/mL]	MRT ([1]; oral product B) [h]	Tmax ([1]; oral product B) [h]	half-life ([1]; oral product B) [h]	Cmax [1, 4] [ng/mL]	Structure (SMILES)	efflux transporters influencing the intestinal absorption (P-gp, MRP2 and BCRP)	further results
24.4	22.9	7.03	0.25	4.92 ± 0.617	38.8	8.95	0.2	6.82 ± 2.38	4.79 ± 1.87	12.5 ± 4.07	318	137						O=C(C=Cc1ccc(O)c(O)c1)OC1CC(O)(C(=O)O)CC(O)C1OC(=O)C=Cc1ccc(O)c(O)c1 (stereo not drawn) [3,4-dicaffeoylquinic acid]	influenced by P-gp, MRP2 and BCRP	
321	196	5.55	0.167	1.73 ± 0.782	351	7.55	0.167	4.65 ± 0.287	352 ± 29.4	449 ± 22.8	235	133						O=C(/C=C/c1ccc(O)c(O)c1)O[C@H]1[C@H](O)C[C@](O)(C(=O)O)C[C@H]1O [Cryptochlorogenic acid]	influenced by P-gp, MRP2 and BCRP	
82.4	71.5	7.3		4.87 ± 1.29	89.7	9.63	0.167	7.33 ± 0.79	27.6 ± 4.73	30.8 ± 5.66	162	164						O=C(/C=C/c1ccc(O)c(O)c1)O[C@@H]1C[C@](O)(C(=O)O)C[C@@H](OC(=O)/C=C/c2ccc(O)c(O)c2)[C@H]1O [3,5-dicaffeoylquinic acid]	influenced by P-gp, MRP2 and BCRP	
1270	707	5.78	0.167	5.37 ± 0.733		8.28	0.167	7.68 ± 0.535	367 ± 169	661 ± 294	215	140						O=C(/C=C/c1ccc(O)c(O)c1)O[C@@H]1C[C@](O)(C(=O)O)C[C@@H](O)[C@H]1O [Chlorogenic acid]	influenced by P-gp, MRP2 and BCRP	
259	138	5.37	0.167	7.63 ± 0.637	404	6.45	0.167	8.58 ± 0.467	75.7 ± 30.1	181 ± 65	286	136						O=C(/C=C/c1ccc(O)c(O)c1)O[C@@H]1C[C@@](O)(C(=O)O)C[C@@H](O)[C@@H]1O [Neochlorogenic acid]	influenced by P-gp, MRP2 and BCRP	
